Measured values: patent US20230348453A1, “HALOGENATED-HETEROARYL AND OTHER HETEROCYCLIC KINASE INHIBITORS, AND USES THEREOF” (iOmx Therapeutics AG, priority 2020, published 2023)
pEC50, pIC50: −log10 of the molar value.

Assays:
[1] = system: M579-A2-luc melanoma tumour cells; experiment: Luciferase-based TNF killing assay; type: cell-based, human; conditions: TNF 10 ng/mL; inhibitor between about 10 and 100 nM
Protocol: PANC1-luc is an HLA-A2.1+ luciferase-expressing pancreatic adenocarcinoma (PDAC) tumour cell line, and M579-A2-luc is an HLA-A2.1+ luciferase-expressing melanoma tumour cell line.
After lysis, luciferase assay buffer is added and immediately the luciferase intensity was measured by using the TECAN-Spark microplate reader.

[2] = system: human breast skin explants; experiment: Human skin explant eumelanisation
MDR1 (P-gp) = MDR1 (P-gp) (Homo sapiens (Human), UniProt P08183); experiment: MDR1-MDCK effective efflux assay; conditions: dog; for efflux ratio: Table 5.1B
[3] = target: MDR1 pump (P-gp), MDCK-MDR1 cells (Homo sapiens (Human), UniProt P08183); experiment: MDR1-MDCK effective efflux assay; conditions: Table 5.1B
[4] = system: MC38 murine tumour cell line; experiment: TNF-sensitised cell viability assay (CellTiter-Glo); conditions: Mus musculus
[5] = MDCK wild type permeability/efflux; conditions: dog
HCK = HCK (Homo sapiens (Human), UniProt P08631); type: biochemical; conditions: Kinase Profiler
SIK2 = SIK2 (Homo sapiens (Human), UniProt Q9H0K1); experiment: SIK2 kinase inhibition (IC50); conditions: read-out: Kinase: IC50 (nM) SIK2
HCT116 cells = experiment: TNF-sensitised cell viability assay (CellTiter-Glo); conditions: Homo sapiens, HCT-116, read-out: HCT116 IC50 (at 10 ng/ml rHuTNF)
[6] = female, C57BL/6, mouse, in vivo, 7 days
[7] = Mouse hepatocyte stability; type: in vitro ADME; conditions: hepatocytes
in vitro [8] = conditions: human, microsomes
[9] = Human hepatocyte stability; type: in vitro ADME
[10] = Screening PK in mice after 30 mg/kg po; conditions: for concentration at 6 h: mice, 30 mg/kg po
CSF1R = CSF1R (Homo sapiens (Human), UniProt P07333); type: biochemical; conditions: Kinase Profiler
[11] = Human plasma-protein binding
[12] = system: HDAC4 phosphorylation in PANC-1 cells; experiment: HDAC4 phosphorylation (Meso Scale Discovery assay); conditions: 10 ng/mL rHuTNF, 3 h
[13] = system: MC38 colorectal carcinoma tumours; experiment: MC38 syngeneic mouse tumour model (Example 8.1)
SIK3 [14] = target: T1, SIK3 (Homo sapiens (Human), UniProt Q9Y2K2); experiment: SIK3 kinase inhibition (IC50)
in vitro [15] = conditions: mouse, microsomes
SIK3 [16] = target: T1, SIK3; conditions: fold of the value of compound C7 (C7 = 1×)
[17] = system: SIK3 WT and KO MC38 clones; experiment: TNF-mediated killing of SIK3 wildtype vs SIK3 knockout MC38 clones (CTG); type: cell-based, mouse; conditions: sub-optimal TNF (<10 ng/ml), 72 h
Protocol: The assay was performed as follows: MC38 SIK3 KO clones were generated using CRISPR. Cells were transfected with RNP complexes (Cas9+gRNA) containing gRNAS targeting SIK3 or non-targeting sequences (control). […] Subsequently, single cell clones were generated by limiting dilution. CRISPR-derived mutations in single clones were detected by next-generation sequencing and analysed using CRISPResso. Knockout and wildtype clones were selected and plated overnight. […] Cells treated with different concentrations of inhibitor but without TNF served as no TNF control. Cell viability was measured by CTG assay.

[18] = Metabolite profile in hepatocytes / in vivo
Source text: Metabolites are identified using high-resolution mass spectrometry.

in vivo = conditions: male, CD1, mouse, po, 30 mg/kg
[19] = Murine plasma protein binding
[20] = system: NFKB activity in MC38 cells; experiment: TNF-induced NFKB activity (NFKB-dependent luciferase reporter); conditions: 10 ng/ml rMuTNF
[21] = system: NFKB activity in PANC-1 cells; experiment: as above; conditions: 10 ng/ml rHuTNF, PANC-1 reporter cells
[22] = in vivo, po, 30 mg/kg
[23] = total plasma concentration at 30 mg/kg p.o dose, fold of C7 (C7 = 1×)

CSF1R, sequence (P07333 20-972 limits assumed): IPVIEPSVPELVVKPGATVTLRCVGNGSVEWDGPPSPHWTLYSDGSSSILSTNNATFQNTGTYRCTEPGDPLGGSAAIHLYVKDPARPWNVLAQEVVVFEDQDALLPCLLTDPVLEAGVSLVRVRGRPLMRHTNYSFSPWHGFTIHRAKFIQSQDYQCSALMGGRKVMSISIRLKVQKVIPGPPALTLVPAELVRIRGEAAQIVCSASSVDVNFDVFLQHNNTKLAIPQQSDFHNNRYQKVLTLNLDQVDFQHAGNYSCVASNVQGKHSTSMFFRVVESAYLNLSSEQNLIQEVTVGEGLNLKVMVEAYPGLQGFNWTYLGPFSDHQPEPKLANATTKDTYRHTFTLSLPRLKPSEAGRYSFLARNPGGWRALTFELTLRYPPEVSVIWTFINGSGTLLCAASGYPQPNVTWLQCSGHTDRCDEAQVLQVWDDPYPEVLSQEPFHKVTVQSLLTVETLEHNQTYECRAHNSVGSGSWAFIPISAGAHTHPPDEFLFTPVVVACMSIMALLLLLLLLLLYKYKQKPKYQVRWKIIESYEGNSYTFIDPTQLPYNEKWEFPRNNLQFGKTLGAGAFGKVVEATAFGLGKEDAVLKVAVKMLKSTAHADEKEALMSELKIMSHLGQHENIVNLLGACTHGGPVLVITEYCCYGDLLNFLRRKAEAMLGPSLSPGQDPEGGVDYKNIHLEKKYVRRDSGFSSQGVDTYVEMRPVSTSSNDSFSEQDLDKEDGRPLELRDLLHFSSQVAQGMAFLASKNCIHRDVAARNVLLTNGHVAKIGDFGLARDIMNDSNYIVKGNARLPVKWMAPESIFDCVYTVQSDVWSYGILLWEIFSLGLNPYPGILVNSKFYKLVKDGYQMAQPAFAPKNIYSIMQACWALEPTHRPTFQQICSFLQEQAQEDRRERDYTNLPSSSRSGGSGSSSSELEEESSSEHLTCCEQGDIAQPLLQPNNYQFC

CCOc1cccc(Cl)c1NC(=O)c1cnc(Nc2cc(N3CCN(CCO)CC3)nc(C)n2)s1 [Compound B8, N-(2-chloro-6-ethoxyphenyl)-2-((6-(4-(2-hydroxyethyl)piperazin-1-yl)-2-methylpyrimidin-4-yl)amino)thiazole-5-carboxamide]
cytotoxicity in the presence of TNF compared to inhibitor alone [1]: fails to exhibit cytotoxicity

Cc1nc(Nc2ncc(C(=O)Nc3c(Cl)cccc3Br)s2)cc(N2CCN(CCO)CC2)n1 [Compound B1, N-(2-bromo-6-chlorophenyl)-2-((6-(4-(2-hydroxyethyl)piperazin-1-yl)-2-methylpyrimidin-4-yl)amino)thiazole-5-carboxamide]
cytotoxicity in the presence of TNF compared to inhibitor alone [1]: increased cytotoxicity

COc1ccc(N(C(=O)Nc2c(C)cccc2C)c2cc(Nc3ccc(N4CCN(C)CC4)cc3)ncn2)c(OC)c1 [HG 9-91-01]
gross pigmentation of human skin explants, passive topical application ([2]; 8 days (1×/day)): no significant gross pigmentation
melanin content (Fontana-Masson staining), passive application ([2]; compared to control): marginally increased melanin
gross pigmentation of human skin explants, mechanical application ([2]; rubbing via an applicator): induces significant gross pigmentation

COc1c(F)cccc1NC(=O)c1cnc(Nc2cc(N3CCN(CCO)CC3)nc(C)n2)s1 [Compound B4, N-(3-fluoro-2-methoxyphenyl)-2-((6-(4-(2-hydroxyethyl)piperazin-1-yl)-2-methylpyrimidin-4-yl)amino)thiazole-5-carboxamide]
cytotoxicity in the presence of TNF compared to inhibitor alone [1]: fails to exhibit cytotoxicity

Cc1nc(Nc2ncc(C(=O)Nc3c(CF)csc3Cl)s2)cc(N2CCN(C)C(C)C2)n1 (racemic) [Compound E10, N-(2-chloro-4-(fluoromethyl)thiophen-3-yl)-2-((6-(3,4-dimethylpiperazin-1-yl)-2-methylpyrimidin-4-yl)amino)thiazole-5-carboxamide]
Papp (MDR1 (P-gp); MDCK-MDR1): 4 ×10⁻⁶ cm/s
efflux ratio (MDR1 (P-gp); MDCK-MDR1, MDCK-MDR1 cells, Mean Efflux Ratio (MDR1)): 20 to 30
efflux ratio (MDR1 (P-gp); MDCK-MDR1, P-gP driven efflux ratio (MDR1/wt)): 19
MDCK-MDR1 cells, Mean Efflux Ratio (MDR1) [3]: 31
pIC50 ([4]; MC-38, read-out: MC38 IC50 (at 100 ng/mL rMuTNF)): > 7.00
pEC50 ([4]; MC-38, read-out: mean EC50 of sensitising MC38 tumour cells to TNF-mediated killing): > 7.00
Papp [5]: 10 ×10⁻⁶ cm/s
efflux ratio [5]: 1.6
HCK residual activity (HCK): less than 1%
IC50 (SIK2): < 20 nM
pIC50 (HCT116 cells): > 7.00
DLT@BID dosing [6]: n.d. @30 mg/kg
DLT@QD dosing [6]: n.d. @30 mg/kg
HRD in vivo @BID [6]: 30 mg/kg
HRD in vivo @QD [6]: 30 mg/kg
half-life [7]: 78 min
microsomal CLint ([7]; read-out: Mouse hepatocyte stability, Intrinsic clearance): 18 µL/min/mg
half-life (in vitro [8]): 12 min
microsomal CLint (in vitro [8]): 120 µL/min/mg
Human hepatocyte stability, Half-life [9]: 21 min
half-life ([9]; human, hepatocytes, read-out: Human hepatocyte stability, Half-life): 21 to 30 min
microsomal CLint ([9]; human, hepatocytes, read-out: Human hepatocyte stability, Intrinsic clearance): 67 µL/min/mg
Cmax at 2 h ([10]; mouse, plasma, po, 30 mg/kg): 374 ng/mL
concentration at 6 h ([10]; mouse, plasma, po, 30 mg/kg, Free plasma concentration after 6 h (nM)): 3.3 nM
concentration at 6 h ([10]; mouse, plasma, po, 30 mg/kg, Plasma concentration after 6 h (nM)): 157 nM
AUC0-last (nM*h), relative to C7 [10, 23]: 2×
C max (ng/ml), relative to C7 [10, 23]: 1.7×
MRT0-last (h), relative to C7 [10, 23]: 2.8×
t1/2 (h), relative to C7 [10, 23]: 14.5×
CSF1R residual activity (CSF1R): less than 1%
Human plasma-protein binding, Percentage unbound (%) ([11]; Table 5.1A): 1%
recovery at 4 h ([11]; human, plasma): 74%
Inhibition of HDAC4 phosphorylation [12]: ++
TGI ([13]; MC38, dose not repeated): 46%
Body weight increase (%) ([13]; MC38, 30 mg/Kg, BID po): 19.8%
Non-treatment related death ([13]; MC38, 30 mg/Kg, BID po): 0/16
Tumour growth inhibition (%) ([13]; MC38, 30 mg/Kg, BID po): 46%
pIC50 (SIK3 [14]): 7.30 to 7.70
half-life (in vitro [15]): 14 min
microsomal CLint (in vitro [15]): 99 µL/min/mg
SIK3 IC50 (nM), relative to C7 (SIK3 [16]): 0.7×
TNF-mediated killing in SIK3 WT vs KO MC38 clones [17]: induced TNF-mediated killing only in SIK3 WT clones
quinone-imine reactive metabolite [18]: not observed
AUC(0-inf) (in vivo): 6.17 µM·h
AUC(0-t) (in vivo): 5.92 µM·h
Cmax (in vivo): 2040 ng/mL
MRT last (in vivo): 4.1 h
Tmax (in vivo): 15 min
half-life (in vivo): 261 min
Murine plasma protein binding, Percentage unbound (%) ([19]; Table 5.1A): 1%
recovery at 4 h ([19]; mouse, plasma): 101%
Inhibition of NFKB activity (MC38) [20]: ++
Inhibition of NFKB activity (PANC-1) [21]: ++
% AUCextrap, Free ([22]; male, CD1, mouse): 4.05%
% AUCextrap, Total ([22]; male, CD1, mouse): 4.05%
AUCinf (nM*h), Free ([22]; male, CD1, mouse): 128.06 nM·h
AUClast (nM*h), Free ([22]; male, CD1, mouse): 122.87 nM·h
Rsq, Free ([22]; mouse): 0.81
Rsq, Total ([22]; mouse): 0.81
